The test system of assay [1] is DUX4-fl. Kind of assay: DUX4-fl mRNA expression by qRT-PCR in myogenic cells treated with epigenetic drugs. Format: cell-based, human. Conditions: for DUX4-fl response: cells from nonmanifesting subjects 15B, 28B, 30B; for DUX4-fl levels: healthy control myogenic cells (five cohorts). How it is done:
(§1) Drug treatment. Stock solutions of 100 mM 5-Aza-2′-deoxycytidine/Decitabine, (Sigma-Aldrich A3656) in DMSO, 5 mM Trichostatin A solution (TSA, Sigma-Aldrich T1952), and 10 mM chaetocin (Sigma-Aldrich C9492) in DMSO were stored at −20° C. and diluted with PBS just before adding to the culture. To minimize culturing artifacts, low passage (<30 population doublings) myoblast cultures were used for all experiments and culture pairs for affected vs healthy or affected vs nonmanifesting were within 1 passage of each other in all instances. Myoblasts were seeded on collagen-coated plates at a cell density of 1.9×10^3/cm^2. Starting the following day, Decitabine (5 μM final concentration) was added daily for a total of 3 days. When used, TSA (200 nM final concentration) or chaetocin (50 nM final concentration) was added to the cells for the last 24 hrs prior to sampling.
qRT-PCR. Total RNAs were extracted using Trizol (Invitrogen) and purified using the RNeasy Mini kit (Qiagen) after on-column DNase I digestion. Total RNA (2 μg) was used for cDNA synthesis using Superscript III Reverse Transcriptase (Invitrogen), and 200 ng of cDNA were used for DUX4-fl qPCR analysis as described. All data were normalized to levels of 18S rRNA [98]. Oligonucleotide primer sequences are provided in [33]. For the analysis of ANKRD1 mRNA expression, 40 ng of cDNA were used with primers hANKRD1 For: […] (SEQ ID NO: 16) and Rev: […] (SEQ ID NO: 17).
For orientation: In qPCR the cycle at which signal appears reflects the starting amount.

For assay [2], the system named is ANKRD1 (Ankyrin Repeat Domain 1). Kind of assay: ANKRD1 mRNA expression by qRT-PCR in drug-treated myocytes (control gene). Format: cell-based, human. Conditions: myocytes of cohorts 07 and 19, affected (A) and control (U). How it is done: as §1
qRT-PCR. Total RNAs were extracted using Trizol (Invitrogen) and purified using the RNeasy Mini kit (Qiagen) after on-column DNase I digestion. Total RNA (2 μg) was used for cDNA synthesis using Superscript III Reverse Transcriptase (Invitrogen), and 200 ng of cDNA were used for DUX4-fl qPCR analysis as described. All data were normalized to levels of 18S rRNA [98]. Oligonucleotide primer sequences are provided in [33]. For the analysis of ANKRD1 mRNA expression, 40 ng of cDNA were used with primers hANKRD1 For: […] […]

Setting [3] is: cells from FSHD1 individuals manifesting weakness 15A, 28A, 29A, 30A.
Where [4] appears, read: myogenic cells of FSHD1-affected subject 03A, relative to untreated, Decitabine 5 μM daily 3 days, TSA 200 nM last 24 hrs.

Data on 2 compounds can be found in patent publication US10870886B2, “Molecular diagnosis of FSHD by epigenetic signature” (University of Massachusetts Medical Center, priority 2014, dated 2020).

On to `CC(/C=C/C(=O)NO)=C\[C@@H](C)C(=O)c1ccc(N(C)C)cc1` [TSA, Trichostatin A], for which, in assay [1] (setting [3]), the DUX4-fl expression result is listed as “little to no effect”. Moreover, in assay [1], the DUX4-fl response result is “little to no response” and the DUX4-fl levels result was “no effect”. Moreover, in assay [1] (cohorts 07 and 19), the DUX4-fl expression entry is “no effect”. In addition, the DUX4-fl induction entry in assay [1] (setting [4]) is listed as “showed induction”. Also, in assay [2], the ANKRD1 expression result is listed as “induced ANKRD1 expression”.

On to `Nc1ncn([C@H]2C[C@H](O)[C@@H](CO)O2)c(=O)n1` [Decitabine, 5-aza-2′-deoxycytidine], for which the DUX4-fl expression entry in assay [1] (setting [3]) is reported as “induced DUX4-fl expression”. In addition, the DUX4-fl response result in assay [1] was “little to no response”. The DUX4-fl induction in assay [1] (cohort 07, as quoted in FIG. 22 legend from FIG. 20) is recorded as 20 fold; in assay [1] (cohort 19, as quoted in FIG. 22 legend from FIG. 20), 32 fold; in assay [1] (setting [4]), 50 fold; in assay [1] (myogenic cells of FSHD1-affected subject 07A, relative to untreated) it was 120 fold; in assay [1] (myogenic cells of FSHD1-affected subject 09A), “did not show induction”; in assay [1] (myogenic cells of FSHD1-affected subject 17A, relative to untreated) it was 3.2 fold. Further, the DUX4-fl induction in assay [1] (myogenic cells of FSHD1-affected subject 19A, relative to untreated) worked out at 122 fold. In addition, the DUX4-fl levels result in assay [1] was “only mildly induced”.
